Experimental data as given in ChEMBL document CHEMBL1240486, “Novel N-methylated 8-oxoisoguanines from Pacific sponges with diverse neuroactivities” (J Med Chem, 2010).
Blank lines part the entries; values can stand above or below the molecule they belong to. Calls of active or inactive are those of the source. The calls are words filed in the database; no cut-off is given here.

Experiments:
[1] = species: Rattus norvegicus; experiment: Inhibition of GABAA receptor-mediated miniature inhibitory postsynaptic current in rat hippocampal neurons at 10 uM after 5 mins by whole-cell voltage clamp assay relative to baseline; assay type: tissue-based; conditions: Hippocampus
[2] = target: GABA A receptor alpha-4/beta-3/gamma-2 (Homo sapiens) (UniProt P18507+P28472+P48169); experiment: Antagonist activity at recombinant alpha-4-beta-3-gamma-2S receptor expressed in HEK 293-T/17 cells assessed as GABA-induced current at 30 uM by whole-cell recording relative to control; assay type: functional, cell-based; set-up: scale not given: the % may be the effect or the level left; conditions: HEK293
[3] = species: Rattus norvegicus; experiment: Inhibition of GABAA receptor-mediated miniature excitatory postsynaptic current in rat hippocampal neurons assessed as EPSC bursts at 10 uM after 5 mins by whole-cell voltage clamp assay (Rvb 0.69 +/- 0.21 Hz); assay type: tissue-based; conditions: Hippocampus
[4] = target: T1, Alpha-1B adrenergic receptor (Homo sapiens, UniProt P35368); experiment: Binding affinity to adrenergic Alpha-1B receptor
T1 sequence (P35368 whole entry): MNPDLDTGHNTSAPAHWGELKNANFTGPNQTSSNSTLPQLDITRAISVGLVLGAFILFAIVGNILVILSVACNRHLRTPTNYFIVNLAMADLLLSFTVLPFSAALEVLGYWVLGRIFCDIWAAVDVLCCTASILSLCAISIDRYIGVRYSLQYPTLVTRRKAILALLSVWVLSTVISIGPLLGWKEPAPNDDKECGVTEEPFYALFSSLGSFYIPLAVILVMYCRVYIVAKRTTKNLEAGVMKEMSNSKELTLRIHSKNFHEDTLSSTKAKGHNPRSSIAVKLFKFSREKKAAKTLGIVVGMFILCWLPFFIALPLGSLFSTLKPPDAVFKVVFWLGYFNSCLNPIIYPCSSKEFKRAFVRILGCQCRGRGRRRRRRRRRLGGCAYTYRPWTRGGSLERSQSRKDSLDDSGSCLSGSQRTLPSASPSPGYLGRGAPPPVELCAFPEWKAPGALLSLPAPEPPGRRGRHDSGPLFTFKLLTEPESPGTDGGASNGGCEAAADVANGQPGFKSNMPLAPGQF

[5] = target: T2, Alpha-1A adrenergic receptor (Homo sapiens, UniProt P35348); experiment: Binding affinity to adrenergic alpha1A receptor
T2 sequence (P35348 whole entry): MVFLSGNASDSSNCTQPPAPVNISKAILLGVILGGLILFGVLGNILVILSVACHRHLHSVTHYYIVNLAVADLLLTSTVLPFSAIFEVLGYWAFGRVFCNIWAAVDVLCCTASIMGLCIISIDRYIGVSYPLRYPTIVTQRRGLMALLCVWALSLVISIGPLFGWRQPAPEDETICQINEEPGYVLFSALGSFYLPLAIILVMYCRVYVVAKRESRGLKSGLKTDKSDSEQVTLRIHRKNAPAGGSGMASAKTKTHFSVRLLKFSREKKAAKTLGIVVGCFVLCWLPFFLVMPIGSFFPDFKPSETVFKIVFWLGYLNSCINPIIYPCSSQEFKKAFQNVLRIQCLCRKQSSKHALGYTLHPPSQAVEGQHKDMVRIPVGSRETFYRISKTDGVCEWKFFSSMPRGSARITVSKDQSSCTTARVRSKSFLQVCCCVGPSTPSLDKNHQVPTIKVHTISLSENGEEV

[6] = species: Mus musculus; experiment: Inhibition of excitatory postsynaptic current in juvenile mouse CA1 neurons at 30 uM by whole-cell voltage clamp assay
[7] = species: Mus musculus; experiment: Inhibition of GABAA receptor-mediated inhibitory synaptic currents in juvenile mouse CA1 neurons at 30 uM by whole-cell voltage clamp assay in presence of prazosin
[8] = species: Rattus norvegicus; experiment: Displacement of [3H]flunitrazepam from benzodiazepine binding site of GABAA receptor in rat brain membrane at <10 uM; assay type: cell membranes
[9] = tested on: Mus musculus; experiment: Neurotoxicity in ddY mouse assessed as changes in behavioral activity at 1 nmol/mouse, icv measured for 60 mins; assay type: toxicity, organism-based; conditions: in vivo, icv_or_intrathecal, 1 h
[10] = species: Rattus norvegicus; experiment: Inhibition of GABAA receptor-mediated inhibitory synaptic currents in rat hippocampal neurons assessed as sEPSC bursts at 10 uM after 5 mins by whole-cell voltage clamp assay (reference value: 5.6 +/- 1.6 Hz); assay type: tissue-based; conditions: Hippocampus
[11] = target: Kappa-type opioid receptor (Homo sapiens, UniProt P41145); experiment: Binding affinity to kappa opioid receptor
Sequence of Kappa-type opioid receptor (P41145 whole entry): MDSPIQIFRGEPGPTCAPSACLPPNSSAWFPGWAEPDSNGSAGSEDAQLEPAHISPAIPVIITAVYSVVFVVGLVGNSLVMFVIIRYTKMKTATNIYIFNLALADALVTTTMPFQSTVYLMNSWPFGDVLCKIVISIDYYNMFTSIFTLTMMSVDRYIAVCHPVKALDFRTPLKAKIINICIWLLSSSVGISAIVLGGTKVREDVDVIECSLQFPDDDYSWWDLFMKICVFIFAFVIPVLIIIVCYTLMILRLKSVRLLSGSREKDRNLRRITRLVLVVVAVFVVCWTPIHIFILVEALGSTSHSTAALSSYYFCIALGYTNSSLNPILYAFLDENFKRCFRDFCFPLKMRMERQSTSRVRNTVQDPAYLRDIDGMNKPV

[12] = target: Glutamate receptor 4 (Homo sapiens) (UniProt P48058); experiment: Antagonist activity at recombinant GluA4 receptor expressed in HEK 293-T/17 cells assessed as glutamate-induced current at 100 uM by whole-cell recording relative to control; assay type: functional, cell-based; set-up: scale not given: the % may be the effect or the level left; conditions: HEK293
Sequence of Glutamate receptor 4 (Homo sapiens) (P48058 whole entry): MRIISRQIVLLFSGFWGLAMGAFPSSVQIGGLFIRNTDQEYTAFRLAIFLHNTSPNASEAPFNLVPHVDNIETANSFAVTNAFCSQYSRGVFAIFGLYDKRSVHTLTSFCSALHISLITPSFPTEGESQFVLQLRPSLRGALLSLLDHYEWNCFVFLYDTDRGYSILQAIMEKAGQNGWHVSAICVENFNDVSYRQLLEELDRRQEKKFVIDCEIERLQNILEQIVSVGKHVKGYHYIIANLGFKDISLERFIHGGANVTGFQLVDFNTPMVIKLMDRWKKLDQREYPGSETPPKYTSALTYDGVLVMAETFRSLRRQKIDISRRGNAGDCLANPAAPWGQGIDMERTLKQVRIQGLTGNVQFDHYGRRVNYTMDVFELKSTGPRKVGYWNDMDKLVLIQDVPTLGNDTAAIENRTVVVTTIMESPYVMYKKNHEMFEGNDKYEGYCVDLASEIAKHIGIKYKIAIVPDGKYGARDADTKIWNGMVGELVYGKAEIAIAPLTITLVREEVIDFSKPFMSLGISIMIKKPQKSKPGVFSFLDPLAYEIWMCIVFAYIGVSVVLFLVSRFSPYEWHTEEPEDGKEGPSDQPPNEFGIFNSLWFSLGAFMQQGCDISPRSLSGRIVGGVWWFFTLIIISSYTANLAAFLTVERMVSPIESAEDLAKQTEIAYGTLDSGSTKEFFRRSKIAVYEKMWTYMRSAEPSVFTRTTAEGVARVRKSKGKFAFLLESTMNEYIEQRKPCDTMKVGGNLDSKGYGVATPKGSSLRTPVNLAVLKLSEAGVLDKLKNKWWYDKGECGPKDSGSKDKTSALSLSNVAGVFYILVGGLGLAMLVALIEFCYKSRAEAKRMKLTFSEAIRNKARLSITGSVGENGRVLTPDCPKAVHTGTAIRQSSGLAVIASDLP

[13] = target: Glutamate NMDA receptor (Rattus norvegicus) (UniProt P35439+Q00959+Q00960+Q00961+Q62645+Q8VHN2+Q9R1M7); experiment: Displacement of [3H]CGP39653 from NMDA receptor in Sprague-Dawley rat synaptic membranes at 10 uM after 1 hr; assay type: cell membranes; conditions: Membrane
[14] = species: Rattus norvegicus; experiment: Displacement of [3H]kainate from kainate receptor in Sprague-Dawley rat synaptic membranes at 10 uM after 1 hr; assay type: cell membranes; conditions: Membrane
[15] = Inhibition of GABAA receptor-mediated miniature inhibitory postsynaptic current in rat hippocampal neurons at 10 uM after 5 mins by whole-cell voltage clamp assay relative to baseline in presence of nonselective adenosine receptor antagonist CGS-15943; assay type: functional; conditions: Hippocampus
[16] = target: T3, Alpha-1D adrenergic receptor (Homo sapiens, UniProt P25100); experiment: Binding affinity to adrenergic Alpha-1D receptor
T3 sequence (P25100 whole entry): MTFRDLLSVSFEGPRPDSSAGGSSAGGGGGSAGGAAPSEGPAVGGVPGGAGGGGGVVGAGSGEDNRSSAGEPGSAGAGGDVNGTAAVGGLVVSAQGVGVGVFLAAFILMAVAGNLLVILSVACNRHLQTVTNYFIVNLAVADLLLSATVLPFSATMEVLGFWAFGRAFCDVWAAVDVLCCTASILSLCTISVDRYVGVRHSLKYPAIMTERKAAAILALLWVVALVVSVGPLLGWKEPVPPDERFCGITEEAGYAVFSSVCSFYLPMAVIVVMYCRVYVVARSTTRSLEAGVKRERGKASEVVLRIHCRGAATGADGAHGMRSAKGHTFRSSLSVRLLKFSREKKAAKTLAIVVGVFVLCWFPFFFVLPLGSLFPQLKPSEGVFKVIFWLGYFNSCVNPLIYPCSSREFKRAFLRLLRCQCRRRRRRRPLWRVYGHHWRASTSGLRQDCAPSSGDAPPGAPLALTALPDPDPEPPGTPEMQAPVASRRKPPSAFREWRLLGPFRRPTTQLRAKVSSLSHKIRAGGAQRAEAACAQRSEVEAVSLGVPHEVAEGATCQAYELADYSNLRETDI

[17] = species: Rattus norvegicus; experiment: Inhibition of GABAA receptor-mediated postsynaptic current in rat hippocampal neurons at 30 uM after 5 mins by whole-cell voltage clamp assay; assay type: tissue-based; conditions: Hippocampus
[18] = species: Mus musculus; experiment: Inhibition of GABAA receptor-mediated inhibitory synaptic currents in juvenile mouse CA1 neurons at 30 uM by whole-cell voltage clamp assay in presence of SCH-50911
[19] = target: Mu-type opioid receptor (Homo sapiens, UniProt P35372); experiment: Binding affinity to mu opioid receptor
Sequence of Mu-type opioid receptor (P35372 whole entry): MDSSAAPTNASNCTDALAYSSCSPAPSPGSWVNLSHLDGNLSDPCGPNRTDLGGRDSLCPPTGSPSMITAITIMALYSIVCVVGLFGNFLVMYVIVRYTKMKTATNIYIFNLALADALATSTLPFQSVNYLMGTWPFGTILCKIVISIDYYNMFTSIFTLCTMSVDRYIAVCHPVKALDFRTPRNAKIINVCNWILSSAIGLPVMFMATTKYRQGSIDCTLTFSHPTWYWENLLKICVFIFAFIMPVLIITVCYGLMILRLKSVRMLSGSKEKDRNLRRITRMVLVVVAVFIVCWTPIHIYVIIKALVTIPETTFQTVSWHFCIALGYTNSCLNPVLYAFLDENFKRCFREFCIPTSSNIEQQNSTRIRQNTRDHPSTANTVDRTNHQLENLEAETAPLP

[20] = species: Rattus norvegicus; experiment: Inhibition of GABAA receptor-mediated postsynaptic current in rat hippocampal neurons at 10 uM after 5 mins by whole-cell voltage clamp assay; assay type: tissue-based; conditions: Hippocampus
[21] = tested on: Mus musculus; experiment: Neurotoxicity in ddY mouse assessed as changes in behavioral activity at >4 nmol/mouse, icv measured for 60 mins; assay type: toxicity, organism-based; conditions: in vivo, icv_or_intrathecal, 1 h
[22] = species: Rattus norvegicus; experiment: Inhibition of GABAA receptor-mediated inhibitory synaptic currents in rat hippocampal neurons assessed as sEPSC bursts at 10 uM measured after compound washout by whole-cell voltage clamp assay; assay type: tissue-based; conditions: Hippocampus
[23] = species: Rattus norvegicus; experiment: Effect on GABAA receptor-mediated spontaneous excitatory postsynaptic current in rat hippocampal neurons assessed as frequency of sEPSC bursts at 10 uM after 5 mins by whole-cell voltage clamp assay (reference value: 0.84 +/- 0.12 Hz); assay type: tissue-based; conditions: Hippocampus
[24] = species: Rattus norvegicus; experiment: Displacement of [3H]muscimol from GABA binding site of GABAA receptor in rat brain membrane at <10 uM; assay type: cell membranes
[25] = target: Neuronal acetylcholine receptor; alpha3/beta2 (Homo sapiens, UniProt P17787+P32297); experiment: Binding affinity to nicotinic alpha3beta2 receptor receptor; assay type: protein-complex assay
Sequence of Neuronal acetylcholine receptor; alpha3/beta2 (P17787 whole entry): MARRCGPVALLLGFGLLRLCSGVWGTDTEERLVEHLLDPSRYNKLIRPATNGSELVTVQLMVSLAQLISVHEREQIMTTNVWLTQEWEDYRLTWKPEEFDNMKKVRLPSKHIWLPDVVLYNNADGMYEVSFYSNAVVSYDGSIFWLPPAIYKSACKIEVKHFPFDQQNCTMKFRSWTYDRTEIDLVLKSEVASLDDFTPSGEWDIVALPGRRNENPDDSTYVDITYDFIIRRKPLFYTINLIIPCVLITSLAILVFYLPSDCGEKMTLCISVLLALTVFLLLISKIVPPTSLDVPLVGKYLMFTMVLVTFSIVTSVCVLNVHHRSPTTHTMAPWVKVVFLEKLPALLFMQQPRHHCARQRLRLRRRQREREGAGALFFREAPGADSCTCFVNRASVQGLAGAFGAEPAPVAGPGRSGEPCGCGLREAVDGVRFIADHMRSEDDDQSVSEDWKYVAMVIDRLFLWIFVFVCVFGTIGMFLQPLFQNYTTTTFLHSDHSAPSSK
Sequence of Neuronal acetylcholine receptor; alpha3/beta2 (P32297 whole entry): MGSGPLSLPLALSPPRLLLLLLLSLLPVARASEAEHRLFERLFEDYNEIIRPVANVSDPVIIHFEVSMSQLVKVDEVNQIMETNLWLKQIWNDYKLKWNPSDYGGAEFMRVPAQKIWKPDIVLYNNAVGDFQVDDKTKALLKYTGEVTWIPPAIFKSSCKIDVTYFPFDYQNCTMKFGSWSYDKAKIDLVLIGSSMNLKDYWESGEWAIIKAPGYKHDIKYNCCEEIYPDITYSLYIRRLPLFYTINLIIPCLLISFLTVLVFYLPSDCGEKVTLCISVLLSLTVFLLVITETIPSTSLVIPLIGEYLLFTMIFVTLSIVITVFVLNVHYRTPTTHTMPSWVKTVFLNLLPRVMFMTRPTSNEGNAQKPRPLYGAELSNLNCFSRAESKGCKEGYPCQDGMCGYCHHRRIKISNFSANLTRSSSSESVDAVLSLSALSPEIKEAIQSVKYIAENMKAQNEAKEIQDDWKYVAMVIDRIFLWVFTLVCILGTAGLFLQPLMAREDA

[26] = species: Mus musculus; experiment: Inhibition of GABAA receptor-mediated inhibitory synaptic currents in juvenile mouse CA1 neurons at 30 uM by whole-cell voltage clamp assay
[27] = tested on: Mus musculus; experiment: Neurotoxicity in icv dosed ddY mouse assessed as 50% maximal convulsant dose measured for 60 mins; assay type: toxicity, organism-based; conditions: in vivo, icv_or_intrathecal, 1 h
[28] = species: Rattus norvegicus; experiment: Displacement of [3H]AMPA from AMPA receptor in Sprague-Dawley rat synaptic membranes at 10 uM after 1 hr; assay type: cell membranes; conditions: Membrane
[29] = target: 5-hydroxytryptamine receptor 1E (Homo sapiens, UniProt P28566); experiment: Binding affinity to 5HT1E receptor
Sequence of 5-hydroxytryptamine receptor 1E (P28566 whole entry): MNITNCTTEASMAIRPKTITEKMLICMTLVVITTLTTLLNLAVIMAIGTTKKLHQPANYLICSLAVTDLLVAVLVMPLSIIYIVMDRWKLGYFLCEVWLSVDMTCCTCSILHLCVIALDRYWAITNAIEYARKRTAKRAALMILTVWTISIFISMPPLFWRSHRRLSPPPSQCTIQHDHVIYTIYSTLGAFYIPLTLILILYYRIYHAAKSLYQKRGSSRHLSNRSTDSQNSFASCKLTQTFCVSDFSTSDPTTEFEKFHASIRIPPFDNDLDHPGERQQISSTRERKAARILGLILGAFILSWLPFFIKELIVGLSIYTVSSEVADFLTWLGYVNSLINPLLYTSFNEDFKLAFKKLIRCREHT

[30] = tested on: Mus musculus; experiment: Neurotoxicity in ddY mouse assessed as changes in behavioral activity at 100 nmol/mouse, icv measured for 60 mins; assay type: toxicity, organism-based; conditions: in vivo, icv_or_intrathecal, 1 h
[31] = tested on: Mus musculus; experiment: Toxicity in ddY mouse assessed as death at 0.1 umol, icv; assay type: organism-based; conditions: in vivo, icv_or_intrathecal
[32] = tested on: Mus musculus; experiment: Neurotoxicity in ddY mouse assessed as changes in behavioral activity at >75 nmol/mouse, icv measured for 60 mins; assay type: toxicity, organism-based; conditions: in vivo, icv_or_intrathecal, 1 h
[33] = tested on: Mus musculus; experiment: Neurotoxicity in ddY mouse assessed as changes in behavioral activity at 25 to 50 nmol/mouse, icv measured for 60 mins; assay type: toxicity, organism-based; conditions: in vivo, icv_or_intrathecal, 1 h
[34] = tested on: Mus musculus; experiment: Neurotoxicity in ddY mouse assessed as induction of occasional tonic extension of forelimbs and weakness of lower bodies at 0.1 umol, icv measured for 60 mins; conditions: in vivo, icv_or_intrathecal, 1 h
[35] = tested on: Mus musculus; experiment: Neurotoxicity in ddY mouse assessed as changes in behavioral activity at 30 to 110 nmol/mouse, icv measured for 60 mins; assay type: toxicity, organism-based; conditions: in vivo, icv_or_intrathecal, 1 h
[36] = tested on: Mus musculus; experiment: Neurotoxicity in ddY mouse assessed as induction of convulsions at 0.05 to 0.1 umol, icv measured for 60 mins; assay type: toxicity, organism-based; conditions: in vivo, icv_or_intrathecal, 1 h
[37] = tested on: Mus musculus; experiment: Neurotoxicity in ddY mouse assessed as changes in behavioral activity at 14 nmol/mouse, icv measured for 60 mins; assay type: toxicity, organism-based; conditions: in vivo, icv_or_intrathecal, 1 h

Activity [2]: 93% | Ki [4]: 758 nM | Ki [5]: 885 nM | inhibition [6]: 22% | inhibition [7]: Active | inhibition [8]: inactive | Ki [11]: 1800 nM | Activity [12]: 100% | inhibition [13]: inactive | inhibition [14]: inactive | Ki [16]: 497 nM | inhibition [18]: Active | Ki [19]: 8900 nM | inhibition [24]: inactive | Ki [25]: 4200 nM | inhibition [26]: 71% | inhibition [28]: inactive | Ki [29]: 2900 nM
SMILES: Cl.Cn1c(=O)[nH]c2c([nH]c(=O)n2C)c1=N
inhibition [1]: 32% | Activity [3]: 0.95 Hz | Activity [9]: Toxic | Activity [10]: 3.6 Hz | inhibition at 10 µM [15]: 29.6% | inhibition [17]: Active | inhibition [20]: Active | Activity [21]: Toxic | Activity [22]: 6 Hz | Activity [23]: 0.9 Hz | Activity [27]: 2.4 nmol

SMILES: Cl.Cn1c(=O)[nH]c(=N)c2[nH]c(=O)n(C)c21
Activity [30]: Toxic

SMILES: Cl.Cn1c(=N)c2[nH]c(=O)[nH]c2n(C)c1=O
Activity [31]: Toxic | Activity [32]: Toxic | Activity [33]: Toxic | Activity [34]: Toxic | Activity [27]: 54 nmol

SMILES: Cl.Cn1c(=O)[nH]c2c(=N)[nH]c(=O)[nH]c21
Activity [35]: Toxic | Activity [36]: Toxic | Activity [37]: Toxic | Activity [27]: 18 nmol
